Laboratory results from US20080021056A1, “Fused, Tricyclic Sulfonamide Inhibitors of Gamma Secretase” (priority 2006, published 2008).

Experiments:
gamma-secretase = biological target: T1, gamma-secretase (Homo sapiens, UniProt P49768); test: Gamma-secretase APP enzyme assay; assay type: biochemical; settings: cleavage of MBP-C125 Swe substrate at the Aβ40 site, partially purified extract of IMR-32 cell membranes, ELISA
T1 construct: partially purified extract of IMR-32 cell membranes as the gamma-secretase enzyme preparation; endogenous in cells; host or cells: IMR-32 cell membranes (partially purified extract)
Excerpt: The gamma-secretase APP enzyme assay was designed to measure the specific proteolytic cleavage of an APP substrate (MBP-C125 Swe fusion protein) at the Aβ40 site. The assay used a partially purified extract of IMR-32 cell membranes as the gamma-secretase enzyme preparation and a recombinant fusion protein containing the C-terminal 125 amino acids of the Swedish variant of the APP (MBP-C125swe) as the substrate. This assay involved two steps beginning with the enzymatic reaction generating a cleavage product that was captured with an immobilized antibody specific for the neo-epitope Aβ40 site. The captured cleavage product was then detected in a sandwich ELISA assay with a biotinylated reporter antibody that is specific to Aβ (17-28). Streptavidin-linked alkaline phosphatase was then added that would generate a fluorescent signal proportional to the amount of cleavage product. This assay was used to discover small molecule inhibitors of gamma-secretase.
Briefly, a 149 mg/ml solution of BIGCHAP detergent was made with water at 42° C. and then rotated for 30 minutes at the same temperatures This warmed solution of BigCHAPS (N,N-Bis(3-D-gluconamidopropyl)cholamide) detergent was used to dissolve Brain Extract Type-V (lipid containing a minimum of 40% phosphatidylethanolamine) from Signa (St. Louis, Mo.) to a concentration of 8 mg/ml. This solution containing BigCHAPS and lipid at 8 mg/ml is then diluted to 0.53 mg/ml lipid with a pre-warmed solution of Hepes and sodium chloride. This final solution containing Hepes buffer, sodium chloride, BigCHAPS detergent and lipid is used to create working solutions of both gamma-secretase (25 Units) and the MBP-C125 substrate (0.05 mg/ml).
Gamma-secretase was then added to a 96-well micro-titre plate and then incubated with various concentrations of inhibitor for 30 minutes at 37° C. MBPC125 substrate was then added to initiate the reaction that would run for two hours at 37° C. The reaction was quenched with the addition of SDS to a final concentration of 0.1% and then 100 μl of the reaction mixture was transferred to a capture ELISA plate and incubated overnight at 4° C. Detection of the cleavage product was performed using a standard sandwich ELISA assay and quantified using a six point standard curve.

gamma secretase = biological target: T2, gamma secretase (Mus musculus, UniProt P49769); settings: PDAPP mice, acute inhibition, in-vivo; cited from earlier work
T2 construct: host or cells: brain of PDAPP transgenic mice (in vivo)

Row | IC50 (gamma-secretase) [nM] | Compound | other results
1 | 0.1 to 100 | CC1c2cn[nH]c2-c2ccc(O)cc2N1S(=O)(=O)c1ccc(Cl)cc1 (centres unmarked) [5-(4-chlorophenylsulfonyl)-4-methyl-4,5-dihydro-1H-pyrazolo[4,3-c]quinolin-7-ol] | 
2 | 0.1 to 100 | CCC1c2cn[nH]c2-c2cc(F)c(F)cc2N1S(=O)(=O)c1ccc(C(F)(F)F)cn1 (centres unmarked) [4-ethyl-7,8-difluoro-5-(5-(trifluoromethyl)pyridin-2-ylsulfonyl)-4,5-dihydro-1H-pyrazolo[4,3-c]quinoline] | 
3 | 0.1 to 100 | CC1c2cn[nH]c2C2CCCCC2N1S(=O)(=O)c1ccc(Cl)cc1 (racemic) [5-(4-chlorophenylsulfonyl)-4-methyl-4,5,5a,6,7,8,9,9a-octahydro-1H-pyrazolo[4,3-c]quinoline] | 
4 | 0.1 to 100 | CC(C)C1c2c[nH]nc2-c2cc(F)c(F)cc2N1S(=O)(=O)c1ccc(C(F)(F)F)cc1 (centres unmarked) [7,8-difluoro-4-isopropyl-5-(4-(trifluoromethyl)phenylsulfonyl)-4,5-dihydro-2H-pyrazolo[4,3-c]quinoline] | 
5 | 1000 to 10000 | Cc1n[nH]c2c1CN(S(=O)(=O)c1ccc(Cl)cc1)c1ccccc1-2 [5-[(4-chlorophenyl)sulfonyl]-3-methyl-4,5-dihydro-1H-pyrazolo[4,3-c]quinoline] | 
6 | 0.1 to 100 | O=S(=O)(c1ccc(C(F)(F)F)cc1)N1c2ncccc2-c2n[nH]cc2C1C1CC1 (centres unmarked) [4-cyclopropyl-5-(4-(trifluoromethyl)phenylsulfonyl)-4,5-dihydro-2H-pyrazolo[4,3-c][1,8]naphythyridine] | 
7 |  | CC1c2cn[nH]c2-c2cc(F)c(F)cc2N1S(=O)(=O)c1ccc(C(F)(F)F)cc1 (single isomer, unassigned) [7,8-difluoro-4-methyl-5-(4-(trifluoromethyl)phenylsulfonyl)-4,5-dihydro-1H-pyrazolo[4,3-c]quinoline] | IC50 (gamma-secretase; enantiomer A): 0.1 to 100 nM; IC50 (gamma-secretase; enantiomer B): 101 to 500 nM
8 | 0.1 to 100 | CC1c2cn[nH]c2-c2cc(F)ccc2N1S(=O)(=O)c1ccc(F)cc1 (centres unmarked) [8-fluoro-5-(4-fluorophenylsulfonyl)-4-methyl-4,5-dihydro-1H-pyrazolo[4,3-c]quinoline] | 
9 | 0.1 to 100 | O=S(=O)(c1ccc(C(F)(F)F)nc1)N1c2ccc(C(F)(F)F)cc2-c2[nH]ncc2[C@H]1C1CC1 [(R)-4-cyclopropyl-8-(trifluoromethyl)-5-(6-(trifluoromethyl)pyridin-3-ylsulfonyl)-4,5-dihydro-1H-pyrazolo[4,3-c]quinoline] | 
10 | 0.1 to 100 | O=S(=O)(c1ccc(C(F)(F)F)cc1)N1Cc2c[nH]nc2-c2cc(F)c(F)cc21 [7,8-difluoro-5-(4-(trifluoromethyl)phenylsulfonyl)-4,5-dihydro-2H-pyrazolo[4,3-c]quinoline] | 
11 | 1000 to 10000 | COc1cccc2c1-c1[nH]ncc1C(C)N2S(=O)(=O)c1ccc(Cl)cc1 (centres unmarked) [5-[(4-chlorophenyl)sulfonyl]-9-methoxy-4-methyl-4,5-dihydro-1H-pyrazolo[4,3-c]quinoline] | 
12 | 0.1 to 100 | O=S(=O)(c1ccc(C(F)(F)F)cc1)N1c2c[n+]([O-])ccc2-c2n[nH]cc2C1C1CC1 (centres unmarked) [4-cyclopropyl-5-(4-(trifluoromethylphenylsulfonyl)-4,5-dihydro-2H-pyrazolo[4,3-c][1,7]naphthyridine 7-oxide] | 
13 | 101 to 500 | CC1c2c[nH]nc2-c2ccccc2N1S(=O)(=O)c1ccccn1 (centres unmarked) [4-methyl-5-(pyridin-2-ylsulfonyl)-4,5-dihydro-2H-pyrazolo[4,3-c]quinoline] | 
14 | 1000 to 10000 | O=S(=O)(c1ccc(Cl)cc1)N1Cc2c(O)n[nH]c2-c2ccccc21 [5-[(4-chlorophenyl)sulfonyl]-4,5-dihydro-1H-pyrazolo{4,3-c]quinolin-3-ol] | 
15 | 0.1 to 100 | CC[C@@H]1c2cn[nH]c2-c2cc(F)c(F)cc2N1S(=O)(=O)c1ccc(C(F)(F)F)cc1 [(R)-4-ethyl-7,8-difluoro-5-(4-(trifluoromethyl)phenylsulfonyl)-4,5-dihydro-1H-pyrazolo[4,3-c]quinoline] | 
16 |  | O=S(=O)(c1ccc(C(F)(F)F)cc1)N1c2ccc(F)cc2-c2[nH]ncc2C1C1CC1 (single isomer, unassigned) [4-cyclopropyl-8-fluoro-5-(4-(trifluoromethyl)phenylsulfonyl)-4,5-dihydro-1H-pyrazolo[4,3-c]quinoline] | IC50 (gamma-secretase; enantiomer A): 0.1 to 100 nM; IC50 (gamma-secretase; enantiomer B): 101 to 500 nM

Row | IC50 (gamma-secretase) [nM] | Compound | other results
17 | 0.1 to 100 | O=S(=O)(c1ccc(Cl)cc1)N1Cc2c[nH]nc2-c2cc(F)ccc21 [5-[(4-chlorophenyl)sulfonyl]-8-fluoro-4,5-dihydro-2H-pyrazolo[4,3-c]quinoline] | 
18 | 0.1 to 100 | O=S(=O)(c1ccc(F)cc1)N1c2ncccc2-c2n[nH]cc2C1C1CC1 (centres unmarked) [4-cyclopropyl-5-(4-fluorophenylsulfonyl)-4,5-dihydro-2H-pyrazolo[4,3-c][1,8]naphthyridine] | 
19 | 0.1 to 100 | CCC1c2cn[nH]c2-c2ccccc2N1S(=O)(=O)c1ccc(Cl)cc1 (centres unmarked) [5-(4-chlorophenylsulfonyl)-4-ethyl-4,5-dihydro-1H-pyrazolo[4,3-c]quinoline] | 
20 |  | CC1c2c[nH]nc2-c2ccccc2N1S(=O)(=O)c1ccccn1 (single isomer, unassigned) [4-methyl-5-(pyridin-2-ylsulfonyl)-4,5-dihydro-1H-pyrazolo[4,3-c]quinoline] | IC50 (gamma-secretase; enantiomer A): 101 to 500 nM; IC50 (gamma-secretase; enantiomer B): 1000 to 10000 nM
21 |  | C[C@H](NC(=O)Cc1cc(F)cc(F)c1)C(=O)N[C@H](C(=O)OC(C)(C)C)c1ccccc1 [DAPT] | Aβ in the brain (gamma secretase): reduction of Aβ in the brain
22 | 0.1 to 100 | CC1c2c[nH]nc2-c2cc(Cl)sc2N1S(=O)(=O)c1ccc(C(F)(F)F)cc1 (centres unmarked) [7-chloro-4-methyl-5-(4-(trifluoromethyl)phenylsulfonyl)-4,5-dihydro-1H-pyrazolo[3,4-d]thieno[2,3-b]pyridine] | 
23 | 101 to 500 | CCC1N(S(=O)(=O)c2ccc(Cl)cc2)c2ccccc2-c2ccnn21 (centres unmarked) [6-(4-chlorophenylsulfonyl)-5-ethyl-5,6-dihydropyrazolo[1,5-c]quinazoline] | 
24 | 0.1 to 100 | COc1ccc(S(=O)(=O)N2c3ccc(F)cc3-c3[nH]ncc3[C@H]2C2CC2)cc1 [(R)-4-cyclopropyl-8-fluoro-5-(4-methoxyphenylsulfonyl)-4,5-dihydro-1H-pyrazolo[4,3-c]quinoline] | 
25 | 0.1 to 100 | CC1c2c[nH]nc2-c2cc(F)ccc2N1S(=O)(=O)c1ccc(Cl)cc1 (racemic) [5-[(4-chlorophenyl)sulfonyl]-8-fluoro-4-methyl-4,5-dihydro-2H-pyrazolo[4,3-c]quinoline] | 
26 | 101 to 500 | CC1c2cn[nH]c2-c2ccccc2N1S(=O)(=O)c1cccnc1 (centres unmarked) [4-methyl-5-(pyridin-3-ylsulfonyl)-4,5-dihydro-1H-pyrazolo[4,3-c]quinoline] | 
27 | 0.1 to 100 | O=S(=O)(c1cccs1)N1c2cc(F)c(F)cc2-c2n[nH]cc2C1C1CC1 (centres unmarked) [4-cyclopropyl-7,8-difluoro-5-(thiophen-2-ylsulfonyl)-4,5-dihydro-2H-pyrazolo[4,3-c]quinoline] | 
28 | 0.1 to 100 | O=S(=O)(c1ccc(F)cc1)N1c2cc(F)c(F)cc2-c2n[nH]cc2C1C1CC1 (centres unmarked) [4-cyclopropyl-7,8-difluoro-5-(4-fluorophenylsulfonyl)-4,5-dihydro-2H-pyrazolo[4,3-c]quinoline] | 
29 | 101 to 500 | O=S(=O)(c1ccc(Cl)cc1)N1Cc2cn[nH]c2-n2ccnc21 [5-(4-chlorophenylsulfonyl)-4,5-dihydro-1H-imidazo[1,2-a]pyrazolo[4,3-e]pyrimidine] | 
30 | 0.1 to 100 | CC1c2c[nH]nc2-c2cc3c(cc2N1S(=O)(=O)c1ccc(Cl)cc1)OCO3 (centres unmarked) [5-(4-chlorophenylsulfonyl)-4-methyl-4,5-dihydro-2H-[1,3]dioxolo[4,5-g]pyrazolo[4,3-c]quinoline] | 
31 | 0.1 to 100 | O=S(=O)(c1ccc(OC(F)(F)F)cc1)N1c2cc(F)c(F)cc2-c2[nH]ncc2C1C1CC1 (centres unmarked) [4-cyclopropyl-7,8-difluoro-5-(4-(trifluoromethoxy)phenylsulfonyl)-4,5-dihydro-1H-pyrazolo[4,3-c]quinoline] | 
32 | 0.1 to 100 | O=S(=O)(c1ccc(Cl)cc1)N1c2ccccc2-c2n[nH]cc2C12CC2 [5′-(4-chlorophenylsulfonyl)-2′,5′-dihydrospiro[cyclopropane-1,4′-pyrazolo[4,3-c]quinoline]] | 
